From publication PMC9298260, “An Immunomodulatory Peptide Dendrimer Inspired from Glatiramer Acetate” (Angewandte Chemie (International Ed. in English), 2021)

How the values were obtained:
lymphocytes = assay: IL-1Ra in supernatants of lymphocytes (rest of leukocytes after Percoll), ELISA; assay type: cell-based, human; settings: rest of leukocytes after Percoll gradient, 50-25 µg/mL, 48 h, n = 2
Experimental: Similar donor dependent responses of cytokine release to GA have been reported for IL‐27.[38]
(§1) Figure S3. Cytokine level of IL-1Ra in supernatants of monocytes for active dendrimers and analogues evaluated by ELISA assay on primary human monocytes of healthy donors. 5×10^4 cells/200 µL in 96 well plates, were incubated with dendrimers or GA as a control for 48 h in presence or absence of LPS (100 ng/mL), in a range of concentrations (100-12.5 µg/mL) (mean ± SD, n = 3 different experiments).
Figure S4. Cytokine level of IL-1Ra in supernatants of monocytes enriched fraction (a) and the rest of leukocytes (b) for active dendrimers and analogues evaluated by ELISA assay.
Monocytes fraction was separated from whole PBMC by Percoll density gradient centrifugation. 5×10^4 cells/200 µL in 96 well plates were incubated with dendrimers or GA (50-25 µg/mL) as a control for 48 h (mean ± SD, n = 2 different experiments). […]

[1] = Circular dichroism spectroscopy; assay type: physicochemical; settings: 100 μg/mL, 8 mM phosphate buffer pH 7.2/7.4
Experimental: In terms of stereochemistry, activity was lost with D‐enantiomers D‐1 and D‐4, similar to the inactivity reported for D‐enantiomeric GA.[2]
Circular dichroism (CD) experiments were measured on a Jasco J-715 Spectropolarimeter. All the experiments were performed using Hellma Suprasil 110-QS 0.1 cm cuvettes. For each peptide, the measurements were performed in phosphate buffer (PB, pH=7.2, 8 mM) and in the presence of 5 mM dodecylphosphocholine. The concentration of the peptides was 100.0 μg/mL and each sample was measured using one accumulation. The scan rate was 10 nm/min, pitch 0.5 nm, response 16 sec and bandwidth 1.0 nm. The nitrogen flow was kept >8.5 L/min. After each measurement, the cuvettes were washed successively with 1 M HCl, milli-Q H2O and PB buffer. The baseline was recorded under the same conditions and subtracted manually.
Figure S12. Circular dichroism spectra of GA, 1 and 4 (100 μg/mL) in 8 mM phosphate buffer at pH 7.4 (a) or in presence of 5 mM dodecylphosphocholine. Percentage of α-helix and β- sheet was processed by Dichroweb using the CONTIN analysis program and reference set 3.
(1 picture or pasted object on this page, not shown here)

[2] = cited from earlier work
[3] = tested on: IL-1Ra release from human primary monocytes; assay: IL-1Ra release from human primary monocytes, immunoassay (ELISA) of supernatants; assay type: cell-based; parameters: key: +: Ability to induce IL‐1Ra on primary monocytes after 48 h of incubation in the presence of 25–50 μg mL^−1 compound; Ability to induce IL‐1Ra on primary monocytes after 48 h of incubation in the presence of 25–50 μg mL^−1 compound; settings: Table 1, 48 h, 25–50 μg mL^−1 compound
Experimental: As an activity screen we focused on interleukin‐1 receptor antagonist (IL‐1Ra), a cytokine released by circulating antigen presenting cells (APC) in response to GA.[15, 35] […] To test our dendrimers, we quantified by immunoassay the release of IL‐1Ra from human primary monocytes of healthy donors, an easily accessible type of APC, stimulated or not by addition of lipopolysaccharide (LPS), which in our hands provided a reliable read‐out.[15] We tested at defined weight/volume (25 and 50 μg mL^−1 compound as typically reported for GA)[15, 35] to account for a possible activity increase with MW as often observed with dendrimers when using molarity. In the initial screen the levels of secreted IL‐1Ra remained below 1 ng mL^−1 for all the smaller test compounds as well as with the linear peptide analogs of GA.
Figure 2 Cytokine level of IL‐1Ra in supernatants of primary human monocytes of healthy donors treated with peptide dendrimers, evaluated by ELISA (bars, left vertical axis) and mRNA levels (▴, right vertical axis). […] For mRNA levels evaluation, 2×10^6 cells 3 mL^−1 in 6 well plates were incubated with 50 μg mL^−1 dendrimer or GA for 18 h. […]
Enzyme-linked immunosorbent assay (ELISA)
Monocytes (5×10^4 cells/200 μL well; 96-well plates) were preincubated for 1 h with or without compounds in RPMI-1640 medium supplemented with 10% heat-inactivated FBS, 50 μg/mL streptomycin, 50 U/mL penicillin, 2 mM L-glutamine, and 5 μg/mL polymyxin B sulfate and then cultured for 48 h in the presence or absence of LPS (100 ng/mL) (2). The production of IL-1Ra was measured in culture supernatants by commercially available enzyme immunoassay according to manufacture protocol.
as §1, with “S2.” for “S3.”, “(50-25” for “(100-12.5”, “2” for “3”, “experiments). The results are present as the difference between each sample and the non-treated sample to take into account the difference between base line for each donor.” for “experiments).”
Figure S3. Cytokine level of IL-1Ra in supernatants of monocytes for active dendrimers and […]
presence or absence of LPS (100 ng/mL), in a range of concentrations (100-12.5 µg/mL) (mean ± SD, n = 3 different experiments). […]

With “Glatiramer acetate [GA, reference compound]” as the substance, how does the “induction of IL-1Ra in lymphocytes” value (lymphocytes) read?
Its value is “did not occur”.

What about the “conformation by CD spectra” value [1] of the same substance?
Its value is “α‐helical”.

And the “crossing of the BBB” value [2]?
Its value is “does not cross the BBB”.

What about the “Act. (ability to induce IL-1Ra)” value [3] of the same substance?
The value was “+”.
